Patent publication EP4664463A1, “COMPUTER-IMPLEMENTED METHOD FOR OLFACTORY PROPERTY PREDICTION” (Givaudan SA, priority 2024, dated 2025)
Read-outs that look alike come from different tables or passages of the source. Marks after values point to notes of the source that are not given here. Each block holds one compound with its values, some of them ahead of it.

Key:
OR10J5 = molecular target: T1, OR10J5 (Homo sapiens, UniProt Q8NHC4); test: OR10J5 (SEQ ID NO: 86) dose-response of isomers, EC20% relative to positive control; format: cell-based; conditions: 20 % of positive control (100µM Mahonial); OR10J5 with SEQ ID NO: 86
T1 construct: expressed in transfected cells; host or cells: HEK293T cells stably expressing human RTP1S (V227I) and RTP2 (L220R)
T1 sequence (Q8NHC4 with tags, fused parts or gaps): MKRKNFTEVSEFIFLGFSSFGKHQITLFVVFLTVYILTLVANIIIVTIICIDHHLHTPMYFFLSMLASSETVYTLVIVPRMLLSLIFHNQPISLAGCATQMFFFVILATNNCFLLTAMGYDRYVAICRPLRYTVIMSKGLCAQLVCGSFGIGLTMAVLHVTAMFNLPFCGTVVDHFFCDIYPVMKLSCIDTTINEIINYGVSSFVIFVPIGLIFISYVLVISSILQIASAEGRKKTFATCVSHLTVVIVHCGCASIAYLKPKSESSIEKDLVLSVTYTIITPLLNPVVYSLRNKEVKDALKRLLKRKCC
Excerpt: Once a strong ligand is known for a given OR and the concentration of that ligand for maximal OR activation, this ligand (tested at its maximal inducing concentration) can be introduced as a positive control into the experiment, and fold-luciferase can be reported as % activation of the positive control according to the following formula: % activation = (Fold luciferase activation test compound−1)/(Fold luciferase activation positive control−1) × 100 [formula]
Activation of OR10J5 with the C-terminal domain of SEQ ID NO: 86 by (S,E)-10-hydroxy-4,8-dimethyldec-4-enal or (R,E)-10-hydroxy-4,8-dimethyldec-4-enal was measured in a dose-response analysis.
Potency of the two tested OR10J5 ligands is expressed as the EC20% value, which is the concentration that leads to a 20 % increase of the luciferase activity relative to the positive control (100µM, Mahonial; (4E)-9-hydroxy-5,9-dimethyl-4-Decenal). […] Because of the difference in EC20%, a much lower concentration of the (S,E)-isomer is needed to activate the receptor compared to the concentration needed of the (R,E)-isomer. […] This example further illustrates the usefulness of the improved assay to determine the most odor-active isomers.

OR5A2 [1] = molecular target: T2, OR5A2 (Homo sapiens, UniProt Q8NGI9); test: Luciferase dose-response, wild-type vs changed C-terminus (SEQ ID NO: 86); format: cell-based
T2 construct: expressed in transfected cells; host or cells: HEK293T cells with stably integrated human RTP1S (V227I) and RTP2 (L220R)
T2 sequence (Q8NGI9 with tags, fused parts or gaps): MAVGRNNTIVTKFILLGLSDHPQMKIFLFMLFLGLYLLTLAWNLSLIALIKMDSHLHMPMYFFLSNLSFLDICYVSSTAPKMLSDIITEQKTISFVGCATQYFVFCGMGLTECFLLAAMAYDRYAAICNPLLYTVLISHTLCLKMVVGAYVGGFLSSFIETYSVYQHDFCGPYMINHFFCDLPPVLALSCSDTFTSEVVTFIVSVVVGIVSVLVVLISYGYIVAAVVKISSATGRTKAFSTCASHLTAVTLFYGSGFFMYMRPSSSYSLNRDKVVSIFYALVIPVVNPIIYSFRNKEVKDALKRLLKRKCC
Excerpt: (§1) To create an expression plasmid, an OR coding sequence fused at the end of TM7 to the desired C-terminus sequence was synthesized by a DNA synthesis service provider (BioCat GmbH, Germany) and inserted into pcDNA3.1(+) (Invitrogen, MA, USA) downstream of the CMV promoter sequence (SEQ ID NO: 82) using BamHI and Notl restriction sites. All the synthetic OR nucleotide sequences described below in Examples 1-15 further contained at their N-terminus a nucleotide sequence encoding a signal peptide (mmLucy-FLAG-rho, SeQ ID NOs: 80, 81) and at the C-terminus the bgh terminator sequence (SEQ ID NO: 83). All the OR expression plasmids also contain a Kozak sequence (GCCACC) between the BamHI restriction site and the start codon of the signal peptide. These plasmids thus contain a constitutively expressed OR gene.

OR5A2 [2] = molecular target: T3, OR5A2 (Homo sapiens, UniProt Q8NGI9); test: as above; format: cell-based; remark: listed apart in the source
T3 construct: expressed in transfected cells; host or cells: HEK293T cells with stably integrated human RTP1S (V227I) and RTP2 (L220R)
T3 sequence (Q8NGI9 1-324): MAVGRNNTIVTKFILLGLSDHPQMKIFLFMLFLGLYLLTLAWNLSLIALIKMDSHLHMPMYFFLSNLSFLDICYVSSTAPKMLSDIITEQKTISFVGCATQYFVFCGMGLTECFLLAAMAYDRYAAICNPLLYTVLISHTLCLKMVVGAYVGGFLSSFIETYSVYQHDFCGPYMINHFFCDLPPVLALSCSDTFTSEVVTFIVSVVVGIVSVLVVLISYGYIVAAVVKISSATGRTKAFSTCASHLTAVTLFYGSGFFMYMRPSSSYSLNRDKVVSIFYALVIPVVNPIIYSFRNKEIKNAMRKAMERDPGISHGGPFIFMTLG
Excerpt: as §1

OR5A2 [3] = test: as above; format: cell-based, human
Excerpt: as §1

OR52E8 [4] = test: cell-based; format: cell-based, human
Excerpt: as §1

OR52E8 [5] = molecular target: T4, OR52E8 (Homo sapiens, UniProt Q6IFG1); test: cell-based; format: cell-based; conditions: read-out: Potency EC50
T4 construct: expressed in transfected cells; host or cells: HEK293T stably expressing human RTP1S(V227I) and RTP2(L220R)
Excerpt: as §1

OR10H5 [6] = molecular target: T5, OR10H5 (Homo sapiens, UniProt Q8NGA6); test: Luciferase dose-response, wild-type vs changed C-terminus (SEQ ID NO: 86); format: cell-based
T5 construct: expressed in transfected cells; host or cells: HEK293T cells stably expressing human RTP1S (V227I) and RTP2 (L220R)
Excerpt: as §1
T5 sequence (Q8NGA6 with tags, fused parts or gaps): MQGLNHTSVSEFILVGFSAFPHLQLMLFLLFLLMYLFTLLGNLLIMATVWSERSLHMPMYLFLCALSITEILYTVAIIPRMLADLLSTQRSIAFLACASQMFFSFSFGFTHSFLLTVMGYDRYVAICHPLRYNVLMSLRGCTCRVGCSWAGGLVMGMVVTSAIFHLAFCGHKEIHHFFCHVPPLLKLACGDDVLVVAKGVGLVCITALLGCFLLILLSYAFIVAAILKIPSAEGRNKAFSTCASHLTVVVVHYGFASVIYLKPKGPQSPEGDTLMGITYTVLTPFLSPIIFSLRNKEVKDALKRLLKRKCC

OR10H5 [7] = test: as above; format: cell-based, human
Excerpt: as §1

OR10H5 [8] = molecular target: T6, OR10H5 (Homo sapiens, UniProt Q8NGA6); test: as above; format: cell-based; conditions: wild-type
T6 construct: expressed in transfected cells; host or cells: HEK293T cells stably expressing human RTP1S (V227I) and RTP2 (L220R)
Excerpt: as §1
T6 sequence (Q8NGA6 whole entry): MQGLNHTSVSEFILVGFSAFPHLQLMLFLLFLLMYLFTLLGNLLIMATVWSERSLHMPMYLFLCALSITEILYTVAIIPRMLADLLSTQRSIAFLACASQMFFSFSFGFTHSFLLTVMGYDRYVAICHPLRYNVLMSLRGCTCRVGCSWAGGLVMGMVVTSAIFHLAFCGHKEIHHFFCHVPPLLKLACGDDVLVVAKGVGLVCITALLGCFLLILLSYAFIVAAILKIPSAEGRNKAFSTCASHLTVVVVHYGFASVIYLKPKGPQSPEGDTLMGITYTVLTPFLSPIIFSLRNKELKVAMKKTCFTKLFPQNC

OR14J1 = molecular target: T7, OR14J1 (Homo sapiens, UniProt Q9UGF5); test: Activation of modified OR14J1 (SEQ ID NO: 221), library hit and dose-response; format: cell-based; conditions: SEQ ID 221
T7 construct: expressed in transfected cells; host or cells: HEK293T stably expressing human RTP1S(V227I) and RTP2(L220R) (general method)
Description: Parallel transfection experiments were conducted with all these plasmids (n = 408) and cells expressing the different OR were stimulated with one given ligand at a time, tested at the maximal, clearly non-cytotoxic concentration. In total 26 different ligands were tested on the full library of class II receptors.
Table 16. Ligands tested on the full library of OR and cognate receptors identified for these ligands

T7 sequence (Q9UGF5 with tags, fused parts or gaps): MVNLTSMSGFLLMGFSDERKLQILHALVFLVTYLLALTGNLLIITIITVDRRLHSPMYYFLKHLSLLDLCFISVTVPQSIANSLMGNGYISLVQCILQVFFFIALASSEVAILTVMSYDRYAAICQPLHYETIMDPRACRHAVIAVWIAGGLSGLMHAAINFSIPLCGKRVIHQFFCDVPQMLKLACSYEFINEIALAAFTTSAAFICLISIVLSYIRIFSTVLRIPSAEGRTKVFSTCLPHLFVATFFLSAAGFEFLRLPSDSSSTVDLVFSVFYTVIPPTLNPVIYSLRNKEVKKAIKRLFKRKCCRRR

EC20% (OR10J5): 24.4 µM
Structure (SMILES): C/C(=C\CC[C@@H](C)CCO)CCC=O [(R,E)-10-hydroxy-4,8-dimethyldec-4-enal]

Comments on efficacy (OR52E8 [4]): No induction wild-type
EC50 (OR52E8 [5]; changed C-term SEQ ID NO: 86): 69 µM
EC50 (OR52E8 [5]; wild-type): > 316 µM
Structure (SMILES): CCCC(C)(O)CC(=O)O (stereo not drawn) [3-Methyl-3-Hydroxy-Hexanoic acid]
Fold-improvement potency (OR52E8 [4]): >>5
Fold-improvement threshold (OR52E8 [4]): >>5

Further lines, the compound ahead of its results:

Structure (SMILES): CC1COCc2cc3c(cc21)C(C)(C)C(C)C3(C)C (stereo not drawn) [Galaxolide]
concentration at which activation occurs (OR5A2 [1]; OR5A2 with SEQ ID NO: 86): < 0.01 µM
EC50 (OR5A2 [1]; Potency EC50, changed C-term SEQ ID NO: 86): 0.1 µM
Detection threshold; concentration for 2-fold induction (OR5A2 [1]; changed C-term. SEQ ID NO: 86): 0.0016 µM
EC50 (OR5A2 [2]; Potency EC50, wild-type): > 31 µM
Detection threshold; concentration for 2-fold induction (OR5A2 [2]; wild-type): n.i. (>> 31) µM
activation of the wild-type receptor (OR5A2 [2]; wild-type OR5A2): No activation
Comments on efficacy (OR5A2 [3]): No induction wild-type
Fold-improvement potency (OR5A2 [3]): >300
Fold-improvement threshold (OR5A2 [3]): >20000

Structure (SMILES): C/C(=C\CC[C@H](C)CCO)CCC=O [(S,E)-10-hydroxy-4,8-dimethyldec-4-enal]
EC20% (OR10J5): 10.1 µM

Structure (SMILES): Cc1ccc2c(c1)OCC(=O)CO2 [Calone]
EC50 (OR10H5 [6]; changed C-term SEQ ID NO: 86, read-out: Potency EC50): 60 µM
Detection threshold; concentration for 2-fold induction (OR10H5 [6]; changed C-term. SEQ ID NO: 86): 24.3 µM
Comments on efficacy (OR10H5 [7]): 3-fold lower maximal induction for wild-type
Fold-improvement threshold (OR10H5 [7]): 2.5
Fold-improvement potency (OR10H5 [7]; higher EC50 due to much higher efficacy of optimized C-terminus): 0.7 *
Detection threshold; concentration for 2-fold induction (OR10H5 [8]): 60.1 µM
EC50 (OR10H5 [8]; read-out: Potency EC50): 41 µM

Structure (SMILES): CC(C)(O)[Si](C1CC1)(C1CC1)C1CC1 [2-(tricyclopropylsilyl)propan-2-ol]
activation of OR14J1 (OR14J1): activate OR14J1
